# Species on record: Rattus norvegicus
# Experiment: DrugMatrix - Regimen: Daily Repeat
# Format: toxicity, organism-based, Sprague-Dawley
# Set-up: regimen Daily Repeat, gender Male, age 6-8 weeks
# Conditions: in vivo, iv, vehicle 100 % SALINE; for ABSOLUTE BASOPHIL / ABSOLUTE EOSINOPHIL / ABSOLUTE LYMPHOCYTE / ABSOLUTE MONOCYTE / ABSOLUTE SEGMENTED NEUTROPHIL / BASOPHIL / EOSINOPHIL / ERYTHROCYTE COUNT / HEMATOCRIT / HEMOGLOBIN / LEUKOCYTE COUNT / LYMPHOCYTE / MEAN CORPUSCULAR HEMOGLOBIN / MEAN CORPUSCULAR HEMOGLOBIN CONCENTRATION / MEAN CORPUSCULAR VOLUME / MONOCYTE / NEUTROPHIL / NUCLEATED RED BLOOD CELLS / PLATELET COUNT: tissue Blood; for ALANINE AMINOTRANSFERASE / ALBUMIN / ALKALINE PHOSPHATASE / ASPARTATE AMINOTRANSFERASE / BLOOD UREA NITROGEN / CARBON DIOXIDE / CHLORIDE / CHOLESTEROL / CREATINE PHOSPHOKINASE / CREATININE / GLUCOSE / LACTATE DEHYDROGENASE / LIPASE / PHOSPHORUS / POTASSIUM / SODIUM / TOTAL BILIRUBIN / TOTAL PROTEIN / URIC ACID: tissue Plasma
# [1] = 0 mg/kg, 72 h, dose level Control, time 3 day
# [2] = 0 mg/kg, 120 h, dose level Control, time 5 day
# [3] = […], 72 h, dose 0.15 mg/Kg, dose level Low, time 3 day
# [4] = […], 72 h, dose 1.5 mg/Kg, dose level High, time 3 day
compound,measurement,setting,value
CCC1=C[C@@H]2CN(C1)Cc1c([nH]c3ccccc13)[C@@](C(=O)OC)(c1cc3c(cc1OC)N(C)[C@H]1[C@@](O)(C(=O)OC)[C@H](OC(C)=O)[C@]4(CC)C=CCN5CC[C@]31[C@@H]54)C2 [VINORELBINE],ABSOLUTE BASOPHIL,[1],0 CELLS/uL
same,ABSOLUTE EOSINOPHIL,[1],15.33 CELLS/uL
same,ABSOLUTE LYMPHOCYTE,[1],9513.5 CELLS/uL
same,ABSOLUTE MONOCYTE,[1],94.67 CELLS/uL
same,ABSOLUTE SEGMENTED NEUTROPHIL,[1],709.83 CELLS/uL
same,BASOPHIL,[1],0%
same,EOSINOPHIL,[1],0.17%
same,ERYTHROCYTE COUNT,[1],5.63 x10E6/uL
same,HEMATOCRIT,[1],34.63%
same,HEMOGLOBIN,[1],13.6 G/DL
same,LEUKOCYTE COUNT,[1],10.33 x10E3/uL
same,LYMPHOCYTE,[1],92%
same,MEAN CORPUSCULAR HEMOGLOBIN,[1],24.17 pg
same,MEAN CORPUSCULAR HEMOGLOBIN CONCENTRATION,[1],39.28 G/DL
same,MEAN CORPUSCULAR VOLUME,[1],61.57 fL
same,MONOCYTE,[1],0.83%
same,NEUTROPHIL,[1],7%
same,NUCLEATED RED BLOOD CELLS,[1],0 /100WBC
same,PLATELET COUNT,[1],903.17 x10E3/uL
same,ALANINE AMINOTRANSFERASE,[1],49.33 u/L
same,ALBUMIN,[1],4.27 G/DL
same,ALKALINE PHOSPHATASE,[1],400.83 u/L
same,ASPARTATE AMINOTRANSFERASE,[1],77.5 u/L
same,BLOOD UREA NITROGEN,[1],16.33 mg/dL
same,CARBON DIOXIDE,[1],29.33 mmol/L
same,CHLORIDE,[1],99.67 MEQ/L
same,CHOLESTEROL,[1],66.67 mg/dL
same,CREATINE PHOSPHOKINASE,[1],275.33 u/L
same,CREATININE,[1],0.18 mg/dL
same,GLUCOSE,[1],163.83 mg/dL
same,LACTATE DEHYDROGENASE,[1],125.33 u/L
same,LIPASE,[1],10 u/L
same,PHOSPHORUS,[1],12.12 mg/dL
same,POTASSIUM,[1],6.68 MEQ/L
same,SODIUM,[1],144.02 MEQ/L
same,TOTAL BILIRUBIN,[1],0.18 mg/dL
same,TOTAL PROTEIN,[1],5.87 G/DL
same,URIC ACID,[1],1.63 mg/dL
same,ABSOLUTE BASOPHIL,[2],0 CELLS/uL
same,ABSOLUTE EOSINOPHIL,[2],48.83 CELLS/uL
same,ABSOLUTE LYMPHOCYTE,[2],14562 CELLS/uL
same,ABSOLUTE MONOCYTE,[2],138.67 CELLS/uL
same,ABSOLUTE SEGMENTED NEUTROPHIL,[2],1733.83 CELLS/uL
same,BASOPHIL,[2],0%
same,EOSINOPHIL,[2],0.33%
same,ERYTHROCYTE COUNT,[2],5.89 x10E6/uL
same,HEMATOCRIT,[2],36.7%
same,HEMOGLOBIN,[2],14.42 G/DL
same,LEUKOCYTE COUNT,[2],16.48 x10E3/uL
same,LYMPHOCYTE,[2],88.83%
same,MEAN CORPUSCULAR HEMOGLOBIN,[2],24.52 pg
same,MEAN CORPUSCULAR HEMOGLOBIN CONCENTRATION,[2],39.3 G/DL
same,MEAN CORPUSCULAR VOLUME,[2],62.37 fL
same,MONOCYTE,[2],0.67%
same,NEUTROPHIL,[2],10.17%
same,NUCLEATED RED BLOOD CELLS,[2],0 /100WBC
same,PLATELET COUNT,[2],1076.5 x10E3/uL
same,ALANINE AMINOTRANSFERASE,[2],44.67 u/L
same,ALBUMIN,[2],4.23 G/DL
same,ALKALINE PHOSPHATASE,[2],357.33 u/L
same,ASPARTATE AMINOTRANSFERASE,[2],84.83 u/L
same,BLOOD UREA NITROGEN,[2],15.5 mg/dL
same,CARBON DIOXIDE,[2],27 mmol/L
same,CHLORIDE,[2],99.5 MEQ/L
same,CHOLESTEROL,[2],63.67 mg/dL
same,CREATINE PHOSPHOKINASE,[2],331.33 u/L
same,CREATININE,[2],0.18 mg/dL
same,GLUCOSE,[2],167.33 mg/dL
same,LACTATE DEHYDROGENASE,[2],320.17 u/L
same,LIPASE,[2],9.17 u/L
same,PHOSPHORUS,[2],12.05 mg/dL
same,POTASSIUM,[2],6.54 MEQ/L
same,SODIUM,[2],143.02 MEQ/L
same,TOTAL BILIRUBIN,[2],0.2 mg/dL
same,TOTAL PROTEIN,[2],6.23 G/DL
same,URIC ACID,[2],2.07 mg/dL
same,ABSOLUTE BASOPHIL,[3],0 CELLS/uL
same,ABSOLUTE EOSINOPHIL,[3],49.67 CELLS/uL
same,ABSOLUTE LYMPHOCYTE,[3],13595.67 CELLS/uL
same,ABSOLUTE MONOCYTE,[3],462 CELLS/uL
same,ABSOLUTE SEGMENTED NEUTROPHIL,[3],1292.67 CELLS/uL
same,BASOPHIL,[3],0%
same,EOSINOPHIL,[3],0.33%
same,ERYTHROCYTE COUNT,[3],5.91 x10E6/uL
same,HEMATOCRIT,[3],37.77%
same,HEMOGLOBIN,[3],14.97 G/DL
same,LEUKOCYTE COUNT,[3],15.4 x10E3/uL
same,LYMPHOCYTE,[3],87.67%
same,MEAN CORPUSCULAR HEMOGLOBIN,[3],25.3 pg
same,MEAN CORPUSCULAR HEMOGLOBIN CONCENTRATION,[3],39.63 G/DL
same,MEAN CORPUSCULAR VOLUME,[3],63.93 fL
same,MONOCYTE,[3],3%
same,NEUTROPHIL,[3],9%
same,NUCLEATED RED BLOOD CELLS,[3],0 /100WBC
same,PLATELET COUNT,[3],1301 x10E3/uL
same,ABSOLUTE BASOPHIL,[4],0 CELLS/uL
same,ABSOLUTE EOSINOPHIL,[4],0 CELLS/uL
same,ABSOLUTE LYMPHOCYTE,[4],5207.33 CELLS/uL
same,ABSOLUTE MONOCYTE,[4],23 CELLS/uL
same,ABSOLUTE SEGMENTED NEUTROPHIL,[4],236.33 CELLS/uL
same,BASOPHIL,[4],0%
same,EOSINOPHIL,[4],0%
same,ERYTHROCYTE COUNT,[4],5.25 x10E6/uL
same,HEMATOCRIT,[4],33.27%
same,HEMOGLOBIN,[4],13.3 G/DL
same,LEUKOCYTE COUNT,[4],5.47 x10E3/uL
same,LYMPHOCYTE,[4],95.33%
same,MEAN CORPUSCULAR HEMOGLOBIN,[4],25.4 pg
same,MEAN CORPUSCULAR HEMOGLOBIN CONCENTRATION,[4],40 G/DL
same,MEAN CORPUSCULAR VOLUME,[4],63.43 fL
same,MONOCYTE,[4],0.33%
same,NEUTROPHIL,[4],4.33%
same,NUCLEATED RED BLOOD CELLS,[4],0.33 /100WBC
same,PLATELET COUNT,[4],808.33 x10E3/uL

# — ChEMBL document CHEMBL3885881, “DrugMatrix”
